Values of other authors, collected in patent publication US20240099995A1, “METHOD OF PREPARING A TOPICAL PHARMACEUTICAL COMPOSITION” (PHEBRA PTY LTD, priority 2021, published 2024).
Like-named read-outs stand apart in the source and are kept apart here.

Experiments:
[1] = not given; remark: listed apart in the source

Row | Structure (SMILES) | concentration loss (4° C. and above, after 2 days) [%] | concentration loss (22° C., within 90 minutes) [%] | time stable (stored in a freezer, acidic and basic conditions) | duration of topical anesthesia ([1]; with adrenaline) [min] | duration of topical anesthesia ([1]; without adrenalin) [min]
1 | CNCC(O)c1ccc(O)c(O)c1 (centres unmarked) [adrenaline] | 100 | 100 | at least 28 days |  | 
2 | CCN(CC)CC(=O)Nc1c(C)cccc1C [lignocaine] |  |  |  | 120 to 360 | 30 to 60
